The source of these data is publication PMC3448010 (Biochemistry, 2012).

Where “and” joins values, the source holds several entries; their conditions need not be identical. Identical values can stand only once. Like-named read-outs stand apart in the source and are kept apart here. A value given as a limit tells only on which side of the number the result lay.

For data set [1] the following is noted: cited from earlier work.
In data set [2] the target is T1, SULT2A1 (Homo sapiens, UniProt Q06520).
T1 sequence (Q06520 1-285): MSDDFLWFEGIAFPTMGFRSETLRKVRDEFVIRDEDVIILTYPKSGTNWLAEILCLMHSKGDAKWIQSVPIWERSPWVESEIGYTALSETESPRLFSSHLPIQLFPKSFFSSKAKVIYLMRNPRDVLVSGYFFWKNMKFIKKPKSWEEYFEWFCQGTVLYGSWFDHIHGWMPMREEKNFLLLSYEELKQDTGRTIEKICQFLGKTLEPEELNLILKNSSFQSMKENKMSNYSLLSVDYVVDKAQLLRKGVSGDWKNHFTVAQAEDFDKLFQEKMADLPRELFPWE
The data set can be described thus: Initial-rate kinetics of raloxifene and DHEA sulfation. Particulars: for Kia: co-substrate extrapolated to zero; for Km: 25 °C, pH 7.4, sequential Bi-Bi fit.

For data set [3], the target named is T1, SULT2A1. The data set can be described thus: Presteady state.
The target in data set [4] is T1, SULT2A1. The experiment in a line: Equilibrium ligand binding monitored by intrinsic enzyme fluorescence.
Data set [5] concerns the target T1, SULT2A1. Particulars: read-out: typical Km; cited from earlier work.

Take `C[C@]12CC[C@H](O)CC1=CC[C@@H]1[C@@H]2CC[C@]2(C)C(=O)CC[C@@H]12` [DHEA, 5-dehydroepiandrosterone]: the sulfated in-vivo in data set [1] is above 99%. Also, on SULT2A1 [2] (DHEA vs raloxifene), the “kcat/Km relative to raloxifene” value was 135 fold. Besides, the Kia at SULT2A1 [2] (DHEA/PAPS substrate pair) is reported as 1.8 (0.1) μM. On SULT2A1 [2] (from kinetic constants), the “positive synergy in the interaction with PAPS” value is reported as 1.4 fold. Further, the Kd on SULT2A1 [3] was 1.1 µM; on SULT2A1 [4] (Kd, enzyme species E· (unliganded)), 1 µM; at SULT2A1 [4] (Kd, enzyme species PAP·E·, global fit of titrations at five PAP concentrations), 1.1 µM. The koff on SULT2A1 [3] (enzyme species E· (unliganded)) is 2.1 s⁻¹; at SULT2A1 [3] (enzyme species PAPS·E·), 3 s⁻¹. Moreover, the “synergy between PAP and acceptor” value at SULT2A1 [4] (global fit, five PAP concentrations) was 1.1 (± 0.2).

For the compound `Nc1ncnc2c1ncn2[C@@H]1O[C@H](COP(=O)(O)O)[C@@H](OP(=O)(O)O)[C@H]1O` [PAP, 3′, 5′-diphosphoadenosine], the Kd at SULT2A1 [4] (Kd, enzyme species DHEA·E·) was determined as 0.21 µM; on SULT2A1 [4] (Kd, enzyme species Ral·E·), 6 µM.

`Nc1ncnc2c1ncn2[C@@H]1O[C@H](COP(=O)(O)OS(=O)(=O)O)[C@@H](OP(=O)(O)O)[C@H]1O` [PAPS, 3′-phosphoadenosine 5′-phosphosulfate]: the Km on SULT2A1 [5] was around 0.3 µM; on SULT2A1 [2] (DHEA/PAPS substrate pair), 0.39 µM; on SULT2A1 [2] (RAL/PAPS substrate pair), 5.9 µM. For the same compound, the kcat on SULT2A1 [2] (DHEA/PAPS substrate pair) was 0.7 (0.03) sec^−1; at SULT2A1 [2] (RAL/PAPS substrate pair) it was 0.10 (0.01) sec^−1. Moreover, the Kia is reported as 0.47 (0.06) μM on SULT2A1 [2] (DHEA/PAPS substrate pair) and 0.24 (0.04) μM at SULT2A1 [2] (RAL/PAPS substrate pair). The koff at SULT2A1 [3] (enzyme species DHEA·E·) is 2.1 s^−1 and 1.9 (0.2) s^−1; at SULT2A1 [3] (enzyme species E· (unliganded)), 2.1 s^−1 and 2.3 (0.3) s^−1; at SULT2A1 [3] (enzyme species RAL·E·, raloxifene 50 μM) it was 50 (2) s^−1. Also, the “faster escape from PAPS·E·raloxifene than from PAPS·E and PAPS·E·DHEA” value at SULT2A1 [3] (off-rate constants) turned out to be 24 fold. Besides, the “weakening in PAPS affinity with raloxifene bound” value on SULT2A1 [3] (raloxifene prevents gate closure) amounted to 21 fold. Further, the Kd at SULT2A1 [3] (read-out: Kd (koff/kon), enzyme species DHEA·E·) was 0.24 µM; at SULT2A1 [3] (read-out: Kd (koff/kon), enzyme species E· (unliganded)), 0.27 µM; at SULT2A1 [3] (read-out: Kd (koff/kon), enzyme species RAL·E·, raloxifene 50 μM), 6 µM; on SULT2A1 [4] (enzyme species E· (unliganded)) it was 0.28 µM.
